From article PMC10341786 (International Journal of Molecular Sciences, 2023)

Assays:
in vitro [1] = conditions: pig
WNV = experiment: microbe, parasite or virus in culture; type: cell-based, West Nile virus strain Strix nebulosa-12; conditions: for EC50: West Nile virus, Vero, read-out: WNV EC50
in vitro [2] = conditions: African green monkey
in vitro [3] = conditions: pig; remark: listed apart in the source
TBEV = experiment: microbe, parasite or virus in culture; type: cell-based, Tick-borne encephalitis virus strain Absettarov; conditions: Tick-borne encephalitis virus, PEK, read-out: TBEV EC50
in vitro [4] = conditions: African green monkey; remark: listed apart in the source

SMILES	CC50 (in vitro [1]) [µM]	EC50 (WNV) [µM]	CC50 (in vitro [2]) [µM]	CC50 (in vitro [3]) [µM]	melting point [°C]	EC50 (TBEV) [µM]	CC50 (in vitro [4]) [µM]	anti-WNV activity (in words) (WNV)
O=S(=O)(c1ccc2ccccc2c1)N(C1=NOC2(CCCCCCC2)C1)S(=O)(=O)c1ccc2ccccc2c1 [4j, N-(Naphthalen-2-ylsulfonyl)-N-(1-oxa-2-azaspiro[4.7]dodec-2-en-3-yl)naphthalene-2-sulfonamide]	> 50	1.3 ± 0.5	> 50	> 50	160 to 161	17 ± 3	> 50	–
O=[N+]([O-])c1ccccc1S(=O)(=O)NC1=NOC2(CCCCCCC2)C1 [3h]	> 50	21.5 ± 0.9	> 50	> 50	–	28 ± 7	> 50	–
O=S(=O)(c1ccc(F)cc1F)N(C1=NOC2(CCCCCCC2)C1)S(=O)(=O)c1ccc(F)cc1F [4g, N-((2,4-Difluorophenyl)sulfonyl)-2,4-difluoro-N-(1-oxa-2-azaspiro[4.7]dodec-2-en-3-yl)benzenesulfonamide]	> 50	9.8 ± 2.6	> 50	> 50	61 to 62	> 50	> 50	–
Nc1onc(C(=O)OCC23CC4CC(CC(C4)C2)C3)c1CCc1ccccc1 [compound 6, reference compound]	> 100	–	> 100	> 100	–	2.29 ± 0.17	–	–
NC(=O)c1nc(F)c[nH]c1=O [Favipiravir, reference compound]	> 1000	102 ± 28	> 1000	–	–	–	> 1000	–
O=[N+]([O-])c1ccccc1S(=O)(=O)N(C1=NOC2CCCCCCC12)S(=O)(=O)c1ccccc1[N+](=O)[O-] (stereo not drawn) [5h, 2-Nitro-N-((2-nitrophenyl)sulfonyl)-N-(3a,4,5,6,7,8,9,9a-octahydrocycloocta[d]isoxazol-3-yl)benzenesulfonamide]	> 50	17 ± 3	–	> 50	153 to 154	12 ± 6	–	–
O=S(=O)(c1ccccc1)N(C1=NOC2(CCCCCCC2)C1)S(=O)(=O)c1ccccc1 [4c, N-(Phenylsulfonyl)-N-(1-oxa-2-azaspiro[4.7]dodec-2-en-3-yl)benzenesulfonamide]	> 50	2.6 ± 1.4	> 50	> 50	139 to 141	9 ± 2	> 50	–
O=S(=O)(c1cccnc1)N(C1=NOC2CCCCCCC12)S(=O)(=O)c1cccnc1 (stereo not drawn) [5l, N-(3a,4,5,6,7,8,9,9a-Octahydrocycloocta[d]isoxazol-3-yl)-N-(pyridin-3-ylsulfonyl)pyridine-3-sulfonamide]	> 50	> 50	> 50	> 50	150 to 151	36 ± 4	> 50	complete loss of anti-WNV activity
Cc1cc(C)c(S(=O)(=O)N(C2=NOC3(CCCCCCC3)C2)S(=O)(=O)c2c(C)cc(C)cc2C)c(C)c1 [4e, N-(Mesitylsulfonyl)-2,4,6-trimethyl-N-(1-oxa-2-azaspiro[4.7]dodec-2-en-3-yl)benzenesulfonamide]	> 50	4.8 ± 1	> 50	> 50	180 to 182	12 ± 7	> 50	–
O=S(=O)(c1ccccc1)N(C1=NOC2CCCCCCC12)S(=O)(=O)c1ccccc1 (stereo not drawn) [5c, N-(3a,4,5,6,7,8,9,9a-Octahydrocycloocta[d]isoxazol-3-yl)-N-(phenylsulfonyl)benzenesulfonamide]	> 50	18 ± 4	> 50	> 50	107 to 108	> 50	> 50	–
O=S(=O)(Cc1ccccc1)N(C1=NOC2CCCCCCC12)S(=O)(=O)Cc1ccccc1 (stereo not drawn) [5b, N-(Benzylsulfonyl)-N-(3a,4,5,6,7,8,9,9a-octahydrocycloocta[d]isoxazol-3-yl)-1-phenylmethanesulfonamide]	> 50	6.3 ± 1.2	> 50	> 50	198 to 199	21.7 ± 2.8	> 50	–
CS(=O)(=O)N(C1=NOC2(CCCCCCC2)C1)S(C)(=O)=O [4a, N-(Methylsulfonyl)-N-(1-oxa-2-azaspiro[4.7]dodec-2-en-3-yl)methanesulfonamide]	> 50	10 ± 6	> 50	> 50	139 to 141	27 ± 12	> 50	–
O=S(=O)(c1cccs1)N(C1=NOC2(CCCCCCC2)C1)S(=O)(=O)c1cccs1 [4k, N-(1-Oxa-2-azaspiro[4.7]dodec-2-en-3-yl)-N-(thiophen-2-ylsulfonyl)thiophene-2-sulfonamide]	> 50	10 ± 4	> 50	> 50	147	> 50	> 50	–
Cc1ccc(S(=O)(=O)N(C2=NOC3(CCCCCCC3)C2)S(=O)(=O)c2ccc(C)cc2)cc1 [4d, 4-Methyl-N-(1-oxa-2-azaspiro[4.7]dodec-2-en-3-yl)-N-tosylbenzenesulfonamide]	> 50	3 ± 1.9	> 50	> 50	151 to 153	21 ± 13	> 50	–
O=S(=O)(NC1=NOC2(CCCCCCC2)C1)c1cccnc1 [3l]	> 50	11 ± 7	> 50	> 50	–	> 100	> 50	–
O=S(=O)(NC1=NOC2(CCCCCCC2)C1)c1ccc2c(c1)OCCO2 [3f]	> 50	18 ± 6	> 50	> 50	–	> 50	> 50	–
O=S(=O)(NC1=NOC2(CCCCCCC2)C1)c1ccc(F)cc1F [3g]	> 50	28.4 ± 2.2	> 50	> 50	–	> 100	> 50	–
CS(=O)(=O)NC1=NOC2(CCCCCCC2)C1 [3a]	> 50	31 ± 2	> 50	> 50	–	> 100	> 50	–
Cc1cc(C)c(S(=O)(=O)NC2=NOC3(CCCCCCC3)C2)c(C)c1 [3e]	> 50	22 ± 4	> 50	> 50	–	18 ± 7	> 50	–
Cc1ccc(S(=O)(=O)NC2=NOC3(CCCCCCC3)C2)cc1 [3d]	> 50	14 ± 5	> 50	> 50	–	> 50	> 50	–
O=S(=O)(NC1=NOC2(CCCCCCC2)C1)c1ccccc1 [3c]	> 50	25 ± 7	> 50	> 50	–	> 50	> 50	–
O=S(=O)(NC1=NOC2(CCCCCCC2)C1)c1cccs1 [3k]	> 50	6.1 ± 1.3	> 50	> 50	–	> 100	> 50	–
